US9340590B2 (priority 2011, dated 2016)
Read-outs that look alike come from different tables or passages of the source.

Tests used:
Assay in all cases: cell-based
hNav1.3 = hNav1.3 (Homo sapiens, UniProt Q9NY46); settings: IonWorks Quattro, use-dependent protocol, hNav1.3; read-out: IWQ Use Nav1.3
hNav1.7 = hNav1.7 (Homo sapiens, UniProt Q15858); assay type: cell-based; settings: IonWorks Quattro, use-dependent protocol, hNav1.7; read-out: IWQ Use Nav1.7
hNav1.5 = hNav1.5 (Homo sapiens, UniProt Q14524)
[1] = IonWorks Quattro, use-dependent protocol, hNav1.5, read-out: IWQ Use Nav1.5

hNav1.3, sequence (Q9NY46 whole entry, looked up): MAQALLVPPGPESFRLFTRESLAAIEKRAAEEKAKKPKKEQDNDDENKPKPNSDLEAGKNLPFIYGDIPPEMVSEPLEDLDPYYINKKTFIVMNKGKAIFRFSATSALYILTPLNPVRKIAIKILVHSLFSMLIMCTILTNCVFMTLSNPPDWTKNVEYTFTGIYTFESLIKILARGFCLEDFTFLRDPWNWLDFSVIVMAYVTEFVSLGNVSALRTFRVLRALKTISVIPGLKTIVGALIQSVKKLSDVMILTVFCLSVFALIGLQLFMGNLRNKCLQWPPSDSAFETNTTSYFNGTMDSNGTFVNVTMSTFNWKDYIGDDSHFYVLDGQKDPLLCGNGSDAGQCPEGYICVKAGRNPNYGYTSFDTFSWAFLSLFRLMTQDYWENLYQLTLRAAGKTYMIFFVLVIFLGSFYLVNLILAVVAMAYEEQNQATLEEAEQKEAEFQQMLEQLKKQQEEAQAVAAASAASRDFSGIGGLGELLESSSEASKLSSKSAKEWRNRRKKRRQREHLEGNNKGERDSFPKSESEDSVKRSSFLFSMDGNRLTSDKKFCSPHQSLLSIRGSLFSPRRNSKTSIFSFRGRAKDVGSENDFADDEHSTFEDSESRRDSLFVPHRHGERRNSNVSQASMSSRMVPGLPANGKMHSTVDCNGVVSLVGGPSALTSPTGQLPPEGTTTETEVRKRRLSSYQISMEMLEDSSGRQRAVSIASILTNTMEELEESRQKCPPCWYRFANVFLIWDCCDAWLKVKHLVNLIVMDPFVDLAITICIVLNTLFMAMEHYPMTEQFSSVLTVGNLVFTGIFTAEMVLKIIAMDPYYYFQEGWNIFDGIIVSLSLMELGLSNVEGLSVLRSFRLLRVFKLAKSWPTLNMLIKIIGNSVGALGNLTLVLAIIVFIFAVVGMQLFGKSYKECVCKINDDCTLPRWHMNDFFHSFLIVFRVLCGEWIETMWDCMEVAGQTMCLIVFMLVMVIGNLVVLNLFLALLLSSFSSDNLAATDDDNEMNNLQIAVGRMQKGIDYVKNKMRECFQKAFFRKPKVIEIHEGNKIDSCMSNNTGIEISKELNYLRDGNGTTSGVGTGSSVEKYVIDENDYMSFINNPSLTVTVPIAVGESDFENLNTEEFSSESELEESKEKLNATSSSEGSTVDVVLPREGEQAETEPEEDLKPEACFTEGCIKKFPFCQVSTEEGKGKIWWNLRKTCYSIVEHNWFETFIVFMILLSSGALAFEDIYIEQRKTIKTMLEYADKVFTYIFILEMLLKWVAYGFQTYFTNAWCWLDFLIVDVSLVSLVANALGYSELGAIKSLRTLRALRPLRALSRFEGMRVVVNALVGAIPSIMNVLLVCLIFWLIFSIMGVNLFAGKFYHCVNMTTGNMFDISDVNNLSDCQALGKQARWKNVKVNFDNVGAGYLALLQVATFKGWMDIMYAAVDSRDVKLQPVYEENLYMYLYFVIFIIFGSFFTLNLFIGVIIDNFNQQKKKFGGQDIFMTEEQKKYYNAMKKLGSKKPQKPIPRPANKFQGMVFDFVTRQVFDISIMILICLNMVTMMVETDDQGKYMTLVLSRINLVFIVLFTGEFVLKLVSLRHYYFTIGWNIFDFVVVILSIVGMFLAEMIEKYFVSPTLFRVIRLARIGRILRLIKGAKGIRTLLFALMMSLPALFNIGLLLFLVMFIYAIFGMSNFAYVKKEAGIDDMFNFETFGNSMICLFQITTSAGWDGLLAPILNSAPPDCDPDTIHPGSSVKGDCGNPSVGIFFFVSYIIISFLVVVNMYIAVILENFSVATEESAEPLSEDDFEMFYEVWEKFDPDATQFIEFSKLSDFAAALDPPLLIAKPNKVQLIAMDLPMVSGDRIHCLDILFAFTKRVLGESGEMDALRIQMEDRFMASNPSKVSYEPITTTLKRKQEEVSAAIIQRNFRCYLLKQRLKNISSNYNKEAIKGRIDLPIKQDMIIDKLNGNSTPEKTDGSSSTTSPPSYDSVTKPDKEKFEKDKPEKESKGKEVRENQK
hNav1.7, sequence (Q15858 whole entry, looked up): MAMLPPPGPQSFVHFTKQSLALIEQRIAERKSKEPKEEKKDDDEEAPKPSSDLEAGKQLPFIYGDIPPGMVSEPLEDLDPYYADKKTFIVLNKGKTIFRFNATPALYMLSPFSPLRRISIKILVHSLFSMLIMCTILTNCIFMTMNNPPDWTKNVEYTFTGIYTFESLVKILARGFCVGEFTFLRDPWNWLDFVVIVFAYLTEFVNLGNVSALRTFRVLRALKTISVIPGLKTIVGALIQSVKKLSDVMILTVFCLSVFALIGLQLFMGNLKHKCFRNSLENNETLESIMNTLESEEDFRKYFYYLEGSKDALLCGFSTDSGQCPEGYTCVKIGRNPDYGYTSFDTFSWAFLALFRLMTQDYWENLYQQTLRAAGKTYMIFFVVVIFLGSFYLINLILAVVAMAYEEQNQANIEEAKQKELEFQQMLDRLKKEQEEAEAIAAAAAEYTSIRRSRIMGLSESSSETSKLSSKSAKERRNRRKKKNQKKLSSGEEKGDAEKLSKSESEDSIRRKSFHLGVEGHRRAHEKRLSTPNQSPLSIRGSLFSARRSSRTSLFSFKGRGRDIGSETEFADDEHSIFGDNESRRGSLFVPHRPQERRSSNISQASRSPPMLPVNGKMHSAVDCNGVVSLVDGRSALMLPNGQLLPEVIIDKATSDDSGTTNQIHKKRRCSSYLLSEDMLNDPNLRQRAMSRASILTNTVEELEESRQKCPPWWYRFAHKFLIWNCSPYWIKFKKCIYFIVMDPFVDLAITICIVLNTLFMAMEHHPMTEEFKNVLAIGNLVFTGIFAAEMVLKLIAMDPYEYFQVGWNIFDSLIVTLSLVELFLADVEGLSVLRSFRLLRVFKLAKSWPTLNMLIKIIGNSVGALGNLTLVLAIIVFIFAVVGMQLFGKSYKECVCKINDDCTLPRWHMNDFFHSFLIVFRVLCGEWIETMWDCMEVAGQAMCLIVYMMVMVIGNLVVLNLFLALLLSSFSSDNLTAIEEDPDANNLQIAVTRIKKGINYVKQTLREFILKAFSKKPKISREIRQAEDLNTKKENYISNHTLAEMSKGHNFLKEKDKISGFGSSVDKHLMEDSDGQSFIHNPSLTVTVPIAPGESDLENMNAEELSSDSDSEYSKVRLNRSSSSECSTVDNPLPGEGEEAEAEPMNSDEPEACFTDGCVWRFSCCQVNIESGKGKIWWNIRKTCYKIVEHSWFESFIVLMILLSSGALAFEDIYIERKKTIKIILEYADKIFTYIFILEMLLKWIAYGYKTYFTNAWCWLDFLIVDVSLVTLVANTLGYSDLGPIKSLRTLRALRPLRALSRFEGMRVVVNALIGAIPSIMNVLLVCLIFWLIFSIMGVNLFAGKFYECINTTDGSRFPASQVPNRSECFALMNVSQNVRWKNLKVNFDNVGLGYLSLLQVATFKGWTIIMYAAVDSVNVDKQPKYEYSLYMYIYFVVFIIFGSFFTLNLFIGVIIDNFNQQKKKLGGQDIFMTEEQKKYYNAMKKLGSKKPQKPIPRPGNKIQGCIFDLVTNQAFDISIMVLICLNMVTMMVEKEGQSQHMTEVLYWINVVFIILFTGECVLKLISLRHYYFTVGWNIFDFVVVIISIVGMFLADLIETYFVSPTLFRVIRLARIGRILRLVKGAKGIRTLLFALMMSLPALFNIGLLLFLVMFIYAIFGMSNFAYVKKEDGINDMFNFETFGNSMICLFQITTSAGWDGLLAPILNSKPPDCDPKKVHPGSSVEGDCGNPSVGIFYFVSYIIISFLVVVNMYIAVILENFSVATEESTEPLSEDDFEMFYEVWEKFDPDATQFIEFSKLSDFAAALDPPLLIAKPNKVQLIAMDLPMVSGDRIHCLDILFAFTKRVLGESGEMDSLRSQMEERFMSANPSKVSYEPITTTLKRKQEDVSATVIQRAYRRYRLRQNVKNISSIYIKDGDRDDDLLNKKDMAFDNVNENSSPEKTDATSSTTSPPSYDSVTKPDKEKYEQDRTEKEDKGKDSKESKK

| Compound | IC50 (hNav1.3) [nM] | IC50 (hNav1.7) [nM] | IC50 (hNav1.5; [1]) [nM] | IC50 (hNav1.5; IWQ Use Nav1.5) [nM] |
| --- | --- | --- | --- | --- |
| CC[C@H](C)[C@@H]1NC(=O)[C@@H]2CSSC[C@@H]3NC(=O)[C@H](C(C)C)NC(=O)[C@H](CC(C)C)NC(=O)[C@H](CC(N)=O)NC(=O)[C@@H]4CCCN4C(=O)[C@H](CCCNC(=N)N)NC(=O)[C@H](CSSC[C@H](NC(=O)[C@@H](N)CC(=O)O)C(=O)N[C@@H](CC(C)C)C(=O)NCC(=O)N[C@@H](Cc4ccc(C(C)(C)C)cc4)C(=O)N[C@@H](CC(C)C)C(=O)N[C@@H](CCCNC(=N)N)C(=O)N[C@@H](CCCCN)C(=O)N2)NC(=O)[C@H](CSSC[C@@H](C(=O)N[C@@H](CCCCN)C(=O)N[C@@H](Cc2ccc(O)cc2)C(=O)N[C@H](C(=O)N[C@@H](Cc2ccccc2)C(N)=O)C(C)C)NC(=O)[C@H](Cc2c[nH]c4ccccc24)NC(=O)[C@H](CCCCN)NC(=O)[C@H](Cc2c[nH]cn2)NC(=O)[C@H]([C@@H](C)O)NC(=O)[C@H](CCCNC(=N)N)NC(=O)[C@H](CO)NC3=O)NC(=O)[C@H](CCCCN)NC(=O)[C@H](CC(=O)O)NC(=O)[C@H](CC(N)=O)NC(=O)[C@H](CC(=O)O)NC(=O)[C@@H]2CCCN2C1=O [compound 671] | 50 | 140 | > 5000 |  |
| CC[C@H](C)[C@@H]1NC(=O)[C@@H]2CSSC[C@@H]3NC(=O)[C@H](C(C)C)NC(=O)[C@H](CC(C)C)NC(=O)[C@H](CC(N)=O)NC(=O)[C@@H]4CCCN4C(=O)[C@H](CCCNC(=N)N)NC(=O)[C@H](CSSC[C@H](NC(=O)[C@@H](N)CC(=O)O)C(=O)N[C@@H](CC(C)C)C(=O)NCC(=O)N(C)[C@@H](C(C)C)C(=O)N[C@@H](CC(C)C)C(=O)N[C@@H](CCCNC(=N)N)C(=O)N[C@@H](CCCCN)C(=O)N2)NC(=O)[C@H](CSSC[C@@H](C(=O)N[C@@H](CCCCN)C(=O)N[C@@H](Cc2ccc(O)cc2)C(=O)N[C@H](C(=O)N[C@@H](Cc2ccccc2)C(N)=O)C(C)C)NC(=O)[C@H](Cc2c[nH]c4ccccc24)NC(=O)[C@H](CCCCN)NC(=O)[C@H](Cc2c[nH]cn2)NC(=O)[C@H]([C@@H](C)O)NC(=O)[C@H](CCCNC(=N)N)NC(=O)[C@H](CO)NC3=O)NC(=O)[C@H](CCCCN)NC(=O)[C@H](CC(=O)O)NC(=O)[C@H](CC(N)=O)NC(=O)[C@H](CC(=O)O)NC(=O)[C@@H]2CCCN2C1=O [compound 672] | 750 | 470 | > 5000 |  |
| CC[C@H](C)[C@@H]1NC(=O)[C@@H]2CSSC[C@@H]3NC(=O)[C@H](C(C)C)NC(=O)[C@H](CC(C)C)NC(=O)[C@H](CC(N)=O)NC(=O)[C@@H]4CCCN4C(=O)[C@H](CCCNC(=N)N)NC(=O)[C@H](CSSC[C@H](NC(=O)[C@@H](N)CC(=O)O)C(=O)N[C@@H](CC(C)C)C(=O)NCC(=O)N(C)[C@@H](CC(C)C)C(=O)N[C@@H](CC(C)C)C(=O)N[C@@H](CCCNC(=N)N)C(=O)N[C@@H](CCCCN)C(=O)N2)NC(=O)[C@H](CSSC[C@@H](C(=O)N[C@@H](CCCCN)C(=O)N[C@@H](Cc2ccc(O)cc2)C(=O)N[C@H](C(=O)N[C@@H](Cc2ccccc2)C(N)=O)C(C)C)NC(=O)[C@H](Cc2c[nH]c4ccccc24)NC(=O)[C@H](CCCCN)NC(=O)[C@H](Cc2c[nH]cn2)NC(=O)[C@H]([C@@H](C)O)NC(=O)[C@H](CCCNC(=N)N)NC(=O)[C@H](CO)NC3=O)NC(=O)[C@H](CCCCN)NC(=O)[C@H](CC(=O)O)NC(=O)[C@H](CC(N)=O)NC(=O)[C@H](CC(=O)O)NC(=O)[C@@H]2CCCN2C1=O [compound 673] | 690 | 170 | > 5000 |  |
| CC[C@H](C)[C@@H]1NC(=O)[C@@H]2CSSC[C@@H]3NC(=O)[C@H](C(C)C)NC(=O)[C@H](CC(C)C)NC(=O)[C@H](CC(N)=O)NC(=O)[C@@H]4CCCN4C(=O)[C@H](CCCNC(=N)N)NC(=O)[C@H](CSSC[C@H](NC(=O)[C@@H](N)CC(=O)O)C(=O)N[C@@H](CC(C)C)C(=O)NCC(=O)N(C)[C@@H](Cc4ccccc4)C(=O)N[C@@H](CC(C)C)C(=O)N[C@@H](CCCNC(=N)N)C(=O)N[C@@H](CCCCN)C(=O)N2)NC(=O)[C@H](CSSC[C@@H](C(=O)N[C@@H](CCCCN)C(=O)N[C@@H](Cc2ccc(O)cc2)C(=O)N[C@H](C(=O)N[C@@H](Cc2ccccc2)C(N)=O)C(C)C)NC(=O)[C@H](Cc2c[nH]c4ccccc24)NC(=O)[C@H](CCCCN)NC(=O)[C@H](Cc2c[nH]cn2)NC(=O)[C@H]([C@@H](C)O)NC(=O)[C@H](CCCNC(=N)N)NC(=O)[C@H](CO)NC3=O)NC(=O)[C@H](CCCCN)NC(=O)[C@H](CC(=O)O)NC(=O)[C@H](CC(N)=O)NC(=O)[C@H](CC(=O)O)NC(=O)[C@@H]2CCCN2C1=O [compound 674] | 310 | 240 | > 5000 |  |
| CC[C@H](C)[C@@H]1NC(=O)[C@@H]2CSSC[C@@H]3NC(=O)[C@H](C(C)C)NC(=O)[C@H](CC(C)C)NC(=O)[C@H](CC(N)=O)NC(=O)[C@@H]4CCCN4C(=O)[C@H](CCCNC(=N)N)NC(=O)[C@H](CSSC[C@H](NC(=O)[C@@H](N)CC(=O)O)C(=O)N[C@@H](CC(C)C)C(=O)NCC(=O)N[C@@H](Cc4ccccc4Cl)C(=O)N[C@@H](CC(C)C)C(=O)N[C@@H](CCCNC(=N)N)C(=O)N[C@@H](CCCCN)C(=O)N2)NC(=O)[C@H](CSSC[C@@H](C(=O)N[C@@H](CCCCN)C(=O)N[C@@H](Cc2ccc(O)cc2)C(=O)N[C@H](C(=O)N[C@@H](Cc2ccccc2)C(N)=O)C(C)C)NC(=O)[C@H](Cc2c[nH]c4ccccc24)NC(=O)[C@H](CCCCN)NC(=O)[C@H](Cc2c[nH]cn2)NC(=O)[C@H]([C@@H](C)O)NC(=O)[C@H](CCCNC(=N)N)NC(=O)[C@H](CO)NC3=O)NC(=O)[C@H](CCCCN)NC(=O)[C@H](CC(=O)O)NC(=O)[C@H](CC(N)=O)NC(=O)[C@H](CC(=O)O)NC(=O)[C@@H]2CCCN2C1=O [compound 675] | 72 | 66 | > 5000 |  |
| CC[C@H](C)[C@@H]1NC(=O)[C@@H]2CSSC[C@@H]3NC(=O)[C@H](C(C)C)NC(=O)[C@H](CC(C)C)NC(=O)[C@H](CC(N)=O)NC(=O)[C@@H]4CCCN4C(=O)[C@H](CCCNC(=N)N)NC(=O)[C@H](CSSC[C@H](NC(=O)[C@@H](N)CC(=O)O)C(=O)N[C@@H](CC(C)C)C(=O)NCC(=O)N[C@@H](CCc4ccccc4)C(=O)N[C@@H](CC(C)C)C(=O)N[C@@H](CCCNC(=N)N)C(=O)N[C@@H](CCCCN)C(=O)N2)NC(=O)[C@H](CSSC[C@@H](C(=O)N[C@@H](CCCCN)C(=O)N[C@@H](Cc2ccc(O)cc2)C(=O)N[C@H](C(=O)N[C@@H](Cc2ccccc2)C(N)=O)C(C)C)NC(=O)[C@H](Cc2c[nH]c4ccccc24)NC(=O)[C@H](CCCCN)NC(=O)[C@H](Cc2c[nH]cn2)NC(=O)[C@H]([C@@H](C)O)NC(=O)[C@H](CCCNC(=N)N)NC(=O)[C@H](CO)NC3=O)NC(=O)[C@H](CCCCN)NC(=O)[C@H](CC(=O)O)NC(=O)[C@H](CC(N)=O)NC(=O)[C@H](CC(=O)O)NC(=O)[C@@H]2CCCN2C1=O [compound 676] | 61 | 16 | > 5000 |  |
| CCCCCCCC[C@@H]1NC(=O)CNC(=O)[C@H](CC(C)C)NC(=O)[C@@H](NC(=O)[C@@H](N)CC(=O)O)CSSC[C@@H]2NC(=O)[C@@H]3CSSC[C@@H](C(=O)N[C@@H](CCCCN)C(=O)N[C@@H](Cc4ccc(O)cc4)C(=O)N[C@H](C(=O)N[C@@H](Cc4ccccc4)C(N)=O)C(C)C)NC(=O)[C@H](Cc4c[nH]c5ccccc45)NC(=O)[C@H](CCCCN)NC(=O)[C@H](Cc4c[nH]cn4)NC(=O)[C@H]([C@@H](C)O)NC(=O)[C@H](CCCNC(=N)N)NC(=O)[C@H](CO)NC(=O)[C@H](CSSC[C@H](NC(=O)[C@H](CCCCN)NC(=O)[C@H](CCCNC(=N)N)NC(=O)[C@H](CCSC)NC1=O)C(=O)N[C@@H]([C@@H](C)CC)C(=O)N1CCC[C@H]1C(=O)N[C@@H](CC(=O)O)C(=O)N[C@@H](CC(N)=O)C(=O)N[C@@H](CC(=O)O)C(=O)N[C@@H](CCCCN)C(=O)N3)NC(=O)[C@H](C(C)C)NC(=O)[C@H](CC(C)C)NC(=O)[C@H](CC(N)=O)NC(=O)[C@@H]1CCCN1C(=O)[C@H](CCCNC(=N)N)NC2=O [compound 677] | 170 | 170 |  | > 5000 |
| CC[C@H](C)[C@@H]1NC(=O)[C@@H]2CSSC[C@@H]3NC(=O)[C@H](C(C)C)NC(=O)[C@H](CC(C)C)NC(=O)[C@H](CC(N)=O)NC(=O)[C@@H]4CCCN4C(=O)[C@H](CCCNC(=N)N)NC(=O)[C@H](CSSC[C@H](NC(=O)[C@@H](N)CC(=O)O)C(=O)N[C@@H](CC(C)C)C(=O)NCC(=O)N[C@@H](C(C)(C)C)C(=O)N[C@@H](CCSC)C(=O)N[C@@H](CCCNC(=N)N)C(=O)N[C@@H](CCCCN)C(=O)N2)NC(=O)[C@H](CSSC[C@@H](C(=O)N[C@@H](CCCCN)C(=O)N[C@@H](Cc2ccc(O)cc2)C(=O)N[C@H](C(=O)N[C@@H](Cc2ccccc2)C(N)=O)C(C)C)NC(=O)[C@H](Cc2c[nH]c4ccccc24)NC(=O)[C@H](CCCCN)NC(=O)[C@H](Cc2cnc[nH]2)NC(=O)[C@H]([C@@H](C)O)NC(=O)[C@H](CCCNC(=N)N)NC(=O)[C@H](CO)NC3=O)NC(=O)[C@H](CCCCN)NC(=O)[C@H](CC(=O)O)NC(=O)[C@H](CC(N)=O)NC(=O)[C@H](CC(=O)O)NC(=O)[C@@H]2CCCN2C1=O [compound 678] | 1360 | 700 |  | > 5000 |
| CC[C@H](C)[C@@H]1NC(=O)[C@@H]2CSSC[C@@H]3NC(=O)[C@H](C(C)C)NC(=O)[C@H](CC(C)C)NC(=O)[C@H](CC(N)=O)NC(=O)[C@@H]4CCCN4C(=O)[C@H](CCCNC(=N)N)NC(=O)[C@H](CSSC[C@H](NC(=O)[C@@H](N)CC(=O)O)C(=O)N[C@@H](CC(C)C)C(=O)NCC(=O)N[C@@H](CCC(C)C)C(=O)N[C@@H](CCSC)C(=O)N[C@@H](CCCNC(=N)N)C(=O)N[C@@H](CCCCN)C(=O)N2)NC(=O)[C@H](CSSC[C@@H](C(=O)N[C@@H](CCCCN)C(=O)N[C@@H](Cc2ccc(O)cc2)C(=O)N[C@H](C(=O)N[C@@H](Cc2ccccc2)C(N)=O)C(C)C)NC(=O)[C@H](Cc2c[nH]c4ccccc24)NC(=O)[C@H](CCCCN)NC(=O)[C@H](Cc2c[nH]cn2)NC(=O)[C@H]([C@@H](C)O)NC(=O)[C@H](CCCNC(=N)N)NC(=O)[C@H](CO)NC3=O)NC(=O)[C@H](CCCCN)NC(=O)[C@H](CC(=O)O)NC(=O)[C@H](CC(N)=O)NC(=O)[C@H](CC(=O)O)NC(=O)[C@@H]2CCCN2C1=O [compound 679] | 240 | 86 | > 5000 |  |
